Values belong to the compound of their own block, whether it stands above or below them.
Assays:
[1] = Table 1: tipranavir drug-drug interaction potential and routes of elimination of antiretrovirals; conditions: drug-drug interaction with tipranavir
[2] = Example 3: pharmacokinetic drug-drug interaction of tipranavir 1200 mg BID and delavirdine 400 mg TID, plasma levels by HPLC
Procedure: Baseline pharmacokinetic data for each drug were obtained under pharmacokinetic steady-state conditions following 7 days of dosing. Each drug was then co-administered for 10 days, at which time the pharmacokinetics of each was re-evaluated and compared with baseline data. […] All subjects were Caucasian. […] Pharmacokinetic analyses were based on results obtained in these subjects.
Detection was by UV absorbance at 260 nm.
Plasma samples were assayed for delavirdine concentrations using a validated, sensitive and specific isocratic high performance liquid chromatographic (HPLC) method: one for the upper concentration range, and one for the lower concentration range. […] The supernatant was mixed with buffer and directly injected. Chromatographic separation was achieved using a Brownlee cyano guard column and an analytical column, DuPont Zorbax® SB CN.
Treatment effects on pharmacokinetic parameters were assessed using Wilcoxon's Signed Rank Test.

[3] = Example 4: pharmacokinetic drug-drug interaction of tipranavir SEDDS 1250 mg BID and ritonavir oral solution 200 mg BID; type: in vivo, human; conditions: for CLPO / Cmin / Css: median (range)
[4] = Study 2: pharmacokinetic drug-drug interaction of tipranavir 600 or 900 mg BID and ritonavir 100-500 mg BID, plasma levels by HPLC; type: in vivo, human; conditions: for CLPO / Cmin / Css / AUC / Cmax / Tmax: median (range); for half-life / AUC / Cmax / Tmax: both sexes, human, plasma, oral; for half-life: harmonic mean (range), read-out: t½ (converted)
Procedure: Both groups received their assigned dose of tipranavir continuously throughout the study period. […] The pharmacokinetics of tipranavir when coadministered with ritonavir were evaluated and compared with baseline data, while the ritonavir data were compared to historical data. The study was conducted in 19 healthy volunteers (16 males and 3 females) with a mean age of 30 years (range, 19-52 years), height of 177.1 cm (range, 162.6-190.5 cm), and weight of 76.7 kg (range, 57.3-95.0 kg). Eighteen subjects were Caucasian […]. […] Pharmacokinetic analyses were based on those subjects completing the baseline evaluation and at least one period of concomitant drug administration. […] Detection was by UV absorbance at 260 nm. […] Ritonavir and the internal standard (IS) were extracted from human plasma by liquid-liquid extraction with an ethyl acetate mixture.

[5] = Study 1: pharmacokinetic drug-drug interaction of tipranavir 1350 mg BID and ritonavir 500 mg BID, plasma levels by HPLC; type: in vivo, human; conditions: for CLPO / Cmin / Css: median (range), n=10
Description: Twelve subjects were Caucasian and two were of African descent. Ten subjects completed all aspects of the study. Pharmacokinetic analyses were based on the results obtained in these subjects. […] Detection was by UV absorbance at 260 nm. […] Ritonavir and the internal standard (IS) were extracted from human plasma by liquid-liquid extraction with an ethyl acetate mixture.

[6] = delavirdine 400 mg TID + tipranavir 1200 mg BID vs delavirdine alone
[7] = Tipranavir SEDDS SEC 1250mg BID + Ritonavir Oral Solution 200mg BID, N=21
[8] = Tipranavir SEDDS SEC 1250mg BID alone, N=22
[9] = both sexes, human, plasma, oral, 1250 mg
[10] = Tipranavir 600 mg BID + RTV 100 mg BID, n=7
[11] = Tipranavir 600 mg BID + RTV 500 mg BID, n=7
[12] = Tipranavir 600 mg BID alone, n=7
[13] = Tipranavir 900 mg BID + RTV 100 mg BID, n=6
[14] = Tipranavir 900 mg BID + RTV 500 mg BID, n=6
[15] = Tipranavir 900 mg BID alone, n=6
[16] = 600 mg, Tipranavir 600 mg BID alone, n=7
[17] = 900 mg, Tipranavir 900 mg BID alone, n=6
[18] = tipranavir 600 mg BID + ritonavir 100 mg BID vs alone
[19] = tipranavir 600 mg BID + ritonavir 500 mg BID vs alone
[20] = tipranavir 900 mg BID + ritonavir 100 mg BID vs alone
[21] = tipranavir 900 mg BID + ritonavir 500 mg BID vs alone
[22] = Tipranavir 1350 mg BID + Ritonavir 500 mg BID
[23] = Tipranavir 1350 mg BID alone, steady state
[24] = tipranavir 1350 mg BID + ritonavir 500 mg BID vs tipranavir alone

Potential for Clinically Significant Interaction [1]: High (and unfavorable)
decrease of delavirdine AUC by tipranavir ([2]; coadministration with tipranavir): > 95%
median delavirdine AUC value, fold lower [2, 6]: more than 20 fold
median trough delavirdine concentration, fold lower [2, 6]: more than 100 fold
SMILES: CC(C)Nc1cccnc1N1CCN(C(=O)c2cc3cc(NS(C)(=O)=O)ccc3[nH]2)CC1 [Delavirdine]

CLPO [3, 7]: 1.19 (0.47-2.29) L/h
Cmin [3, 7]: 62.1 (11.2-261) µM
Css [3, 7]: 145 (76-371) µM
CLPO [3, 8]: 12.7 (6.1-23.7) L/h
Cmin [3, 8]: 0.82(0.30-2.20) µM
Css [3, 8]: 13.6 (7.3-28.1) µM
AUC [3, 9]: 163 µM·h
Cmax [3, 9]: 56 µM
Tmax [3, 9]: 2 h
half-life ([3]; both sexes, human, plasma, oral, 1250 mg, read-out: t½ (converted)): 5.4 h
increase of tipranavir steady-state concentrations ([3]; ritonavir 200 mg vs same dose (1250 mg BID) of tipranavir alone): more than 10 fold
effect on apparent terminal half-life of tipranavir ([3]; tipranavir 1250 mg BID + ritonavir 200 mg BID): not significantly affected
increase of median Cmax values ([3]; tipranavir 1250 mg BID + ritonavir oral solution 200 mg BID vs tipranavir alone): approximately 5 fold
effect of delavirdine on the pharmacokinetics of tipranavir ([2]; tipranavir 1200 mg BID + delavirdine 400 mg TID, steady state): no effect
CLPO [4, 10]: 3.35 (2.44-6.07) L/h
Cmin [4, 10]: 3.14 (1.61-12.8) µM
Css [4, 10]: 24.8 (13.7-34.0) µM
CLPO [4, 11]: 2.23 (1.02-4.79) L/h
Cmin [4, 11]: 14.3 (4.70-32.5) µM
Css [4, 11]: 37.2 (17.3-81.0) µM
Cmin ([4]; Tipranavir 600 mg BID + RTV 500 mg BID, n=7, listed as tipranavir): 14.3 µM
CLPO [4, 12]: 31.3 (17.3-88.8) L/h
Cmin [4, 12]: 0.341 (0.165-0.929) µM
Css [4, 12]: 2.70 (0.94-4.79) µM
CLPO [4, 13]: 4.10 (2.45-7.86) L/h
Cmin [4, 13]: 3.62 (1.98-6.95) µM
Css [4, 13]: 30.6 (15.8-50.8) µM
CLPO [4, 14]: 1.64 (1.00-2.82) L/h
Cmin [4, 14]: 22.7 (9.91-63.2) µM
Css [4, 14]: 76.1 (44.1-124.8) µM
CLPO [4, 15]: 32.4 (20.8-53.1) L/h
Cmin [4, 15]: 0.499 (0.160-1.150) µM
Css [4, 15]: 3.88 (2.34-5.98) µM
half-life [4, 16]: 3.6 h
AUC [4, 16]: 32.5 µM·h
Cmax [4, 16]: 11.3 µM
Tmax [4, 16]: 2 h
half-life [4, 17]: 4.2 h
AUC [4, 17]: 46.5 µM·h
Cmax [4, 17]: 14.6 µM
Tmax [4, 17]: 2 h
half-life [4, 10]: 2.3 h
AUC [4, 10]: 297 µM·h
Cmax [4, 10]: 56.8 µM
Tmax [4, 10]: 2 h
half-life [4, 11]: 3.7 h
AUC [4, 11]: 446 µM·h
Cmax [4, 11]: 78.6 µM
Tmax [4, 11]: 2 h
half-life [4, 13]: 1.9 h
AUC [4, 13]: 368 µM·h
Cmax [4, 13]: 68.9 µM
Tmax [4, 13]: 3 h
half-life [4, 14]: 3.5 h
AUC [4, 14]: 913 µM·h
Cmax [4, 14]: 148 µM
Tmax [4, 14]: 2 h
predicted tipranavir concentration (target minimal therapeutic threshold) ([4]; extrapolated to a dose of ritonavir 30 mg BID): 1 µM
lowest median trough tipranavir concentration ([4]; in combination with ritonavir 100 mg BID): exceeded 3 µM
increase of plasma tipranavir concentrations ([4]; ritonavir 100 mg BID vs same dose of tipranavir alone): ~10 fold
increase of median AUC values of tipranavir [4, 18]: approximately 9 fold
increase of median Cmax values [4, 18]: 5 fold
increase of median trough tipranavir concentrations [4, 18]: approximately 9 fold
increase of median AUC values of tipranavir [4, 19]: approximately 14 fold
increase of median Cmax values [4, 19]: 7 fold
increase of median trough tipranavir concentrations [4, 19]: approximately 40 fold
trough concentration ([4]; tipranavir 600 mg with ritonavir 500 mg): exceeding 3 µM
increase of median AUC values of tipranavir [4, 20]: approximately 8 fold
increase of median Cmax values [4, 20]: 5 fold
increase of median trough tipranavir concentrations [4, 20]: approximately 7 fold
increase of median AUC values of tipranavir [4, 21]: approximately 20 fold
increase of median Cmax values [4, 21]: 10 fold
increase of median trough tipranavir concentrations [4, 21]: approximately 45 fold
CLPO [5, 22]: 1.9 (1.2-3.8) L/h
Cmin [5, 22]: 42 (12-84) µM
Css [5, 22]: 100 (49-161) µM
Cmin ([5]; Tipranavir 1350 mg BID + Ritonavir 500 mg BID, listed as tipranavir): 42 µM
CLPO [5, 23]: 31 (11-100) L/h
Cmin [5, 23]: 0.78 (0.34-1.42) µM
Css [5, 23]: 6.1 (1.9-16.8) µM
increase of mean steady-state plasma tipranavir concentrations (Css) [5, 24]: 12 fold
increase of median tipranavir Cmax value in the presence of ritonavir [5, 24]: approximately 5.6 fold
increase of median tipranavir Cmin values [5, 24]: 45 fold
SMILES: CCC[C@@]1(CCc2ccccc2)CC(O)=C([C@H](CC)c2cccc(NS(=O)(=O)c3ccc(C(F)(F)F)cn3)c2)C(=O)O1 (relative stereo) [Tipranavir, [R-(R*,R*)]-N-[3-[1-[5,6-Dihydro-4-hydroxy-2-oxo-6-(2-phenylethyl)-6-propyl-2H-pyran-3-yl]propyl]phenyl]-5-(trifluoromethyl)-2-pyridinesulfonamide]
effect on apparent terminal half-life of tipranavir ([4]; tipranavir 600 mg BID with concomitant ritonavir): no prolongation of the apparent terminal half-life
effect on apparent terminal half-life of tipranavir ([4]; tipranavir 900 mg BID with concomitant ritonavir): No prolongation of the apparent terminal half-life
effect on tipranavir elimination half-life (t½) [5, 24]: not accompanied by a prolongation of the elimination half-life
